Measurements from patent publication US12377152B2, “Compounds for degrading alpha-synuclein aggregates and uses thereof” (APRINOIA THERAPEUTICS LIMITED, priority 2019, dated 2025).

What was measured:
α-synuclein [1] = molecular target: T1, α-synuclein (Homo sapiens (Human), UniProt P37840); assay: In vivo assay for degrading α-synuclein aggregates (transgenic Line61 mice); conditions: 25 mpk, once intravenous, hemibrain, WES System
Method: Male transgenic Line61 mice at age of three-month-old were used for the study. Mice were treated once via intravenous injection with the compound 132168 (25 mpk). Plasma and brain samples were collected at 0.25, 0.5, 1, 2, 4, 8 and 24 h post treatment. Blood samples were collected via cardiac puncture into MiniCollect® 0.5 mL K2EDTA (Potassium ethylenediaminetetraacetic acid) tubes. The blood samples were centrifuged at 3000×g for 10 minutes at room temperature (22° C.). Plasma was transferred to a pre-labeled 1.5 ml LoBind Eppendorf tube (2 aliquot, each ˜[…]), frozen on dry ice and stored at −80° C. until analysis. For brain samples, a perfusion with 0.9% saline was performed before collection. Brain was weighed, hemisected on a cooled surface, weighed and snap frozen. The hemibrain was used for WES System analysis of human α-synuclein in soluble and insoluble fraction. Upon treatment of compound 132168, insoluble α-synuclein fraction decreases 30% compared to DMSO vehicle control, reflecting the reduction of insoluble α-synuclein aggregates.

[2] = In vivo pharmacokinetic study; conditions: mice; for AUC(0-t) / Cmax / Tmax / half-life: mouse
Method: To determine whether the compounds of the present disclosure are capable of crossing the blood brain barrier (BBB), example compound 132168 was administered to mice in a pharmacokinetic study (10 and 25 mg/kg, intravenous).
Animal Husbandry: Mice were housed at animal room environment with ventilation 15 times/hour, lighting 12 hours/day, temperature 20° C. to 24° C. and humidity 40% to 70%. The study rooms were disinfected and cleaned prior to the start of the study and the operation area was cleaned after each dosing or sampling during the study conduct. All animals had free access to food and water during the study. The animals had access to Certified Rodent Diet and water ad libitum. The nutritional composition and levels of contaminants of the diet and impurities and contaminants of the water were monitored by third organization. The health status of the animals was evaluated in accordance with accepted animal husbandry procedures and deemed suitable for experimental use.
Sample Collection & Processing: Approximately 110 μL of whole blood were collected from all animals via facial or cardiac puncture under anesthesia with Isoflurane into test tubes containing potassium ethylenediaminetetraacetate (K2EDTA) at 0.25, 0.5, 1, 2, 4, 8 and 24 hr post dose. Brian samples were collected at 0.25, 0.5, 1, 2, 4, 8 and 24 hours post dose. A perfusion with pre-cold saline will be conducted via cardiac puncture before brain collection. Blood samples were centrifuged at 2000 g at 4° C. for 5 minutes to obtain plasma samples by transferring the supernatants into new tubes. All plasma and brain samples were stored at approximately −70° C. until analysis.
Bioanalytical Method Development: The concentrations of compound in plasma and brain samples were determined using a liquid chromatography with tandem mass spectrometry (LC-MS/MS) based method.

α-synuclein aggregates = α-synuclein aggregates (Homo sapiens (Human), UniProt P37840); assay: ReNcell VM α-synuclein aggregation assay; format: cell-based; conditions: for DC50: ReNcell VM cells, read-out: Activity (DC50, concentration at which 50% of α-synuclein aggregates has been degraded)
Method: The ReNcell VM α-synuclein aggregation assay was conducted at Charles River Laboratories (CRL). ReNcell VM is an immortalized human neural progenitor cell line derived from the ventral mesencephalon region of the brain. ReNcell VM cells were selected as in vitro cellular model for the α-synuclein aggregation assay, based on their growth features, differentiation potential into terminally differentiated neurons and amenability to adenoviral transduction. Aggregated human wild type α-synuclein was overexpressed through adenoviral delivery. Aggregated α-synuclein was detected with the aggregate-selective anti-α-synuclein antibody MJFR14 using immunocytochemistry; total α-synuclein levels were detected with Syn205 (α/β-synuclein-specific antibody).
The ReNcell VM α-synuclein aggregation assay was applied for compound screening to identify compounds capable of degrading α-synuclein aggregates. […] Immunoreactivity toward aggregated (MJFR14) and total α-synuclein (Syn205) was quantified using high content-based segmentation of immunoactive areas in immunocytochemical images (performed with the IN Cell 2200 (GE Healthcare)), followed by quantification of immunofluorescent intensity (performed by CRL's developed algorithm using IN Cell Developer Toolbox software).
Percentage effect (PE): Inhibition in comparison to BLANK (0.1% DMSO).
PE=100−(signal of compound/average signal BLANK)×100
Compound-induced cytotoxicity (% remaining cells)
% remaining cells=(nuclei count of compound/average nuclei count of BLANK)×100

α-synuclein [3] = molecular target: T1, α-synuclein; assay: PBB5 competition assay; format: binding; conditions: 2 μM α-synuclein, 0.26 μM PBB5, 37° C., 1 hour
Method: (§1) (A) Expression and purification of recombinant wild-type human α-synuclein: 0.5 mM IPTG was used to induce production of wild type human α-synuclein by bacteria transformed with a full-length α-synuclein expression plasmid. After shaking at 16° C. for 20 hours, cell pellet was resuspended in lysis buffer (10 mM Tris, 1 mM EGTA, 0.75 mM NaCl, 1 mM PMSF, pH 7.5) and lysed by sonication followed by centrifugation (6000 g, 30 min, 4° C.). The supernatant was then boiled at 95° C. for 15 min with manual agitation by every 5 minutes, followed by centrifugation (6000 g, 30 min, 4° C.). Supernatant was dialyzed with (10 mM Tris, 1 mM EGTA, 50 mM NaCl, pH 7.5) buffer and concentrated with concentrator. The collected sample was loaded onto a Superdex200 column, the flow-through fraction was then loaded onto a Q-HP column. Collected fractions with α-synuclein eluates were pooled, concentrated and stored at −80° C.
(§2) (B) Preparation of aggregated α-synuclein: 5 mg/mL of α-synuclein in PBS buffer (pH 7.4) was incubated in tube with at 37° C. with shaking (700 rpm) for 5-10 days.
(D) PBB5 competition assay: 2 μM of α-synuclein was incubated with 0.26 μM 2-(4-(2-(methylamino)pyridine-5-yl)-1,3-butadiene-1-yl)benzothiazole-6-ol (PBB5) and serially diluted compound (three-fold serial dilution, from 10 to 0.001 μM) in a 96-well plate at 37° C. for 1 hour. Fluorescence intensity (excitation/emission=530/690 nm) of PBB5 was read by microplate spectrometer. Percentage of competition was calculated using the following equation: (Max−well of compound alone)/(Max−Min)*100%, where Max=(α-synuclein+PBB5) signals−(buffer+PBB5) signals; and Min=(buffer+PBB5) signals−(buffer+PBB5) signals. The IC50 value of each compound was calculated with GraphPad Prism software using the “4 Parameter Logistic Model or Sigmoidal Dose-Response Model”: Y=Bottom+(Top−Bottom)/(1+(IC50/X)^HillSlope)

α-synuclein [4] = molecular target: T1, α-synuclein; assay: In vitro fluorometric α-synuclein binding assay; conditions: 2 μM α-synuclein, 37° C., 1 hour, fluorescence
Method: as §1, §2
(C) In vitro fluorometric α-synuclein binding assays: 2 μM α-synuclein was incubated with serially diluted compound (three-fold serial dilutions, from 10 to 0.001 μM) in a 96-well plate at 37° C. for 1 hour. Fluorescence intensity was read by microplate spectrometer. Compound Kd values were calculated using the following equation: Y=Bmax*X/(Kd+X), where X is the concentration of compound; Y is the fluorescence signal of (compound+α-synuclein)−(compound+DMSO); and Bmax is the maximum signal.

decrease of insoluble α-synuclein fraction compared to DMSO vehicle control (α-synuclein [1])	blood brain barrier (BBB) penetration ([2]; 10 and 25 mg/kg intravenous)	AUC(0-t) ([2]; Brain, 10 mg/kg intravenous)	Cmax ([2]; Brain, 10 mg/kg intravenous)	Tmax ([2]; Brain, 10 mg/kg intravenous)	half-life ([2]; Brain, 10 mg/kg intravenous)	AUC(0-t) ([2]; Brain, 25 mg/kg intravenous)	Cmax ([2]; Brain, 25 mg/kg intravenous)	Tmax ([2]; Brain, 25 mg/kg intravenous)	AUC(0-t) ([2]; Plasma, 10 mg/kg intravenous)	half-life ([2]; Plasma, 10 mg/kg intravenous)	AUC(0-t) ([2]; Plasma, 25 mg/kg intravenous)	half-life ([2]; Plasma, 25 mg/kg intravenous)	inhibition of MJFR14 immunoreactivity (α-synuclein aggregates; 6-day treatment, immunocytochemical images)	SMILES	DC50 (α-synuclein aggregates)	IC50 (α-synuclein [3])	Kd (α-synuclein [4])
30%	able to penetrate BBB	1330 ng·h/mL	319 ng/mL	0.5 h	5.88 h	4070 ng·h/mL	581 ng/mL	4 h	17800 ng·h/mL	2.87 h	48700 ng·h/mL	2.12 h	clear inhibition	CN(C)c1ccc(-c2ccc(-c3nc4ccc(NCCCCCOc5ccc6c(c5)CN(C5CCC(=O)NC5=O)C6=O)cc4s3)c(C(F)(F)F)c2)cn1 (stereo not drawn) [Compound 132168]	10 to 900 nM		
														CN(C)c1ccc(-c2ccc(-c3cn4cc(OCCOCCOc5ccc6c(c5)CN(C5CCC(=O)NC5=O)C6=O)ccc4n3)cc2)cn1 (stereo not drawn) [Compound 177033]	> 10000 nM	630 nM	650 nM
